The values that follow are results of earlier work, collected in US6821974B2, “Stable pharmaceutical compositions” (Barbeau Pharma, Inc, priority 2002, dated 2004).

The conditions of data set [1]: 20 mg/ml sterile injection solutions.

Like-named read-outs stand apart in the source and are kept apart here.

Regarding `NNc1nncc2ccccc12` [Hydralazine, 1-hydrazinophthalazine], in data set [1], the “storage time after which submicron particles appear” value is 6-12 months. In addition, the onset of action (given intravenously) was 10 to 20 min. Also, under “in vivo”, the duration of action was 3 to 4 h, the maximum hypotensive effect was 10 to 80 min and the onset of action is 10 to 30 min.
